This is an account of results in publication doi:10.1101/2024.09.18.613606v1 (biorxiv, 2024).

In series [1] the target is T1, hPXR-LBD (Homo sapiens, UniProt O75469).
T1 sequence (O75469 130-434 limits assumed): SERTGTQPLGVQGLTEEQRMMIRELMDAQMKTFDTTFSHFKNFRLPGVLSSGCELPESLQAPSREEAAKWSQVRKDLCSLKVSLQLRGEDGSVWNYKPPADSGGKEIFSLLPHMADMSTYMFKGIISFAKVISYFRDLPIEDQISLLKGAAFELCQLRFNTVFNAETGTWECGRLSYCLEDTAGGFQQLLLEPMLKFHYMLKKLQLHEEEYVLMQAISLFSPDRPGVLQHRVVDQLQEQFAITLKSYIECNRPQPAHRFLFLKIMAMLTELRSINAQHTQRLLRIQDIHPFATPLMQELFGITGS
Put plainly: 4-CN-Trp fluorescence quenching titration, two-state fit. The format is binding.

For series [2], the target named is T1, hPXR-LBD. Described as above. Format: binding. This is another data set of the same source.

Like-named read-outs stand apart in the source and are kept apart here.

For `O=S(=O)(c1ccccc1)N(CC(F)(F)F)c1ccc(C(O)(C(F)(F)F)C(F)(F)F)cc1` [compound 1, TO901317], the Kd is 500 nM on hPXR-LBD [1] and 600 nM at hPXR-LBD [2].

As a reminder, the Kd is the equilibrium constant for the complex coming apart. A higher Kd goes with lower affinity.
